Test results from US20140038950A1, “PLANT TREATMENT” (priority 2012, published 2014).

Columns and labels:
common dogwood diseases = assay: Drench experiments on flowering dogwoods; assay type: in vivo; conditions: soil drench; compared with fluoxastrobin (personal experience)
Text: Evidence of how far you have to stray from my preferred formulation and application plan before the invention stops being useful (in other words, what are the boundaries of this invention). Not all strobilurins have xylem mobility only azoxystrobin and fluoxastrobin show this ability.

[1] = Direct trunk injection, phytotoxicity; assay type: in vivo; conditions: movement into xylem vessels
Text: For direct trunk injections, the azoxystrobin fungicide is compatible with the physiology of the plants. […] Other formulations such as fluoxastrobin are not advised for direct trunk injections.

With CO/C=C(/C(=O)OC)c1ccccc1Oc1cc(Oc2ccccc2C#N)ncn1 [azoxystrobin] as the molecule, how does the “control of common dogwood diseases” value (common dogwood diseases) read?
Its value is “excellent season long control”.

What about the phytotoxicity [1] of the same molecule?
Its phytotoxicity is “without phytotoxicity”.
